Test results as given in patent US20220267288A1, “CARDIAC THERAPEUTIC” (priority 2019, published 2022).
Entries after “also recorded” stand apart in the source; their conditions may differ. Marks after values point to notes of the source that are not given here.

Columns and labels:
hiPSC-CM = assay: Beat-to-beat variability (BBV), Poincaré plots; format: cell-based, human; conditions: 10 nM
Text: The BBV calculations were done using Kubios HRV2.2 (Department of Applied Physics, University of Eastern Finland, Kuopio, Finland)^4. BBV is visualised as scatterplots known as Poincaré plots. In these plots, each time interval between two successive beats [inter-beat interval (RRn)] is plotted against the subsequent interval (RRn+1). Poincaré plot descriptors SD1 and SD2 define the extent of variability. SD1 represents a measure for short-term variability, whereas SD2 describes long-term variability^5.

CYP3A5 [1] = biological target: T1, CYP3A5 (Homo sapiens, UniProt P20815); assay: Metabolic stability (substrate depletion) with CYP3A5; format: in vitro ADME; conditions: for elimination rate constant k by CYP3A5 / half-life at 1 μM: 1 μM substrate, CYP3A5 10 pmol/mL; for CLint (CYP3A5): PBPK parameter, in vitro data obtained; for half-life at 1 μM: human, CYP3A5 enzyme, pH 7.4, read-out: T1/2 by CYP3A5; for Intrinsic clearance, CLint CYP3A5: substrate depletion
T1 construct: purchased BD Gentest (Woburn, Mass.)
T1 sequence (P20815 whole entry): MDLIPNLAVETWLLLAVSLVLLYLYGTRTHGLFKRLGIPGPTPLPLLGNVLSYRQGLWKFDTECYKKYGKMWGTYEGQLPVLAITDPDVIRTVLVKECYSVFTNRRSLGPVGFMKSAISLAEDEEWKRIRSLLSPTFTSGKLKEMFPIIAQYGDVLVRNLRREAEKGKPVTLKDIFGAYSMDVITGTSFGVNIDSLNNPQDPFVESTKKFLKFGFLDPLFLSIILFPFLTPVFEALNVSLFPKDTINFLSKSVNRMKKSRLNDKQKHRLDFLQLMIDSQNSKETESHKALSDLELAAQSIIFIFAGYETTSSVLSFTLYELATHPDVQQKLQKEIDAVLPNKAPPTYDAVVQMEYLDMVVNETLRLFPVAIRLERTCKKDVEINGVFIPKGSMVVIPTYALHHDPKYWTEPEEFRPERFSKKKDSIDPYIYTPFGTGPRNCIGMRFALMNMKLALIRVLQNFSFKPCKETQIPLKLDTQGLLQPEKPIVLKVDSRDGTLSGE
Procedure: The metabolic stability experiments were performed to derive intrinsic clearance (CLint) values via the substrate depletion method. […] NADPH A was subsequently added to initiate the reaction. […] The reaction mixtures were incubated at 37° C. with gentle agitation. At the respective time points (0-60 min), 80 μL of the reaction mixture was quenched using an equal volume of ice-cold ACN with 1 μM tamoxifen as internal standard (IS). The samples were then centrifuged at 3220 g at 4° C. for 30 min before transferring the supernatant to a 96-well plate for liquid chromatography-tandem mass spectrometry (LC-MS/MS) analysis.
The mean of triplicate peak area ratios for each compound was normalized to that of the same compound at the 0 min time point to obtain the percentage of substrate remaining at each time point. This was plotted against incubation time for each compound and the data was then fitted to a one-phase decay model using GraphPad Prism software (version 8.02; GraphPad Inc., San Diego, Calif.) to obtain an estimation for the elimination rate constant (k). CLint was then calculated based on equation 3:
In equation 3, k=elimination rate constant (min^−1); V=volume of incubation mixture (mL); P=amount of protein in mixture (mg).

CYP3A5 [2] = biological target: T1, CYP3A5; assay: Time- and concentration-dependent inactivation of CYP3A5, rivaroxaban probe; format: in vitro ADME; conditions: recombinant CYP3A5, pH 7.4, probe rivaroxaban (50 μM), in vitro data obtained, read-out: Mechanism-based inactivation KI CYP3A5
Procedure: Incubations were conducted in triplicates in 96-well plates. Primary incubation mixtures comprising various concentrations of inhibitor (0-20 μM) were pre-incubated at 37° C. for 3 min with CYP3A4 or CYP3A5 (20 pmol/mL) and NADPH B in potassium phosphate buffer (100 mM, pH 7.4). To initiate the enzymatic reaction, 5 μL NADPH A was added to the primary incubation. The final primary incubation mixture volume was 100 μL and contained <1% v/v organic solvent. At different pre-incubation time points (3, 8, 15, 22, 30, and 45 min) after the addition of NADPH A, 5 μL aliquots of the primary incubation were transferred to 95 μL of the secondary incubation containing 50 μM rivaroxaban, the NADPH A and B, and potassium phosphate buffer (100 mM, pH 7.4) to yield a 20-fold dilution. The secondary incubation mixtures were incubated at 37° C. for 2 h with CYP3A4 or CYP3A5 before 80 μL aliquots were removed and quenched with an equal volume of ice-cold ACN containing 4 μM dexamethasone as IS. The samples were then centrifuged at 3220 g at 4° C. for 30 min before transferring the supernatant to a 96-well plate for liquid chromatography-tandem mass spectrometry (LC-MS/MS) analysis. The main rivaroxaban metabolite, morpholinone hydroxylated metabolite, was quantified using LC-MS/MS analysis. […]

CYP2J2 [3] = biological target: T2, CYP2J2 (Homo sapiens, UniProt P51589); assay: In-vitro metabolic half-life with recombinant CYP2J2; format: in vitro ADME; conditions: recombinant CYP2J2, NADPH, 1 μM drug, read-out: Metabolic half-life (T1/2)
T2 sequence (P51589 1-502): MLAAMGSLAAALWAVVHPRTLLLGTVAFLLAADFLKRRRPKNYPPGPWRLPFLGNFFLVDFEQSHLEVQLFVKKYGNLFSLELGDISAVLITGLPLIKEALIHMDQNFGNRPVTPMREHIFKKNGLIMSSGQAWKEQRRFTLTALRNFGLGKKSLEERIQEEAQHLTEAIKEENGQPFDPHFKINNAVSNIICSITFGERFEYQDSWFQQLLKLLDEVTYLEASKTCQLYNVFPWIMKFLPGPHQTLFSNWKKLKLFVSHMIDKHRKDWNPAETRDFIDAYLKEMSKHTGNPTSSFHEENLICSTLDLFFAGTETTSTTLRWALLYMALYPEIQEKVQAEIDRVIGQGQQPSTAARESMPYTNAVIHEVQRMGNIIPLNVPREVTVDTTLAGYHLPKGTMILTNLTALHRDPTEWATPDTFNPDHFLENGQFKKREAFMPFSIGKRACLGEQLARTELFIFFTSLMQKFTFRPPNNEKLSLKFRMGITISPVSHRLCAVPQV

CYP2J2 [4] = biological target: T2, CYP2J2; parameters: endogenous in cells; host or cells: hiPSC-CM (from human foreskin fibroblasts); conditions: PBPK parameter; read-out: Reversible inhibition Ki CYP2J2; cited from earlier work

SMILES: CCCCc1oc2ccc(NS(C)(=O)=O)cc2c1C(=O)c1ccc(OCCCN(CCCC)CCCC)cc1.Cl [Dronedarone]
- beat-to-beat variability (BBV), inter-beat intervals in Poincaré plot (hiPSC-CM): do not cluster at the centroid of the ellipse and diffuse across the plot
- elimination rate constant k by CYP3A5 (CYP3A5 [1]): 0.03989 min⁻¹
- CLint (CYP3A5) (CYP3A5 [1]): 14.1812* μL/min/mg microsomal protein
- half-life at 1 μM (CYP3A5 [1]): 17.4 min
- Intrinsic clearance, CLint CYP3A5 (CYP3A5 [1]): 3.99 µL/min/pmol
- Intrinsic clearance, CLint CYP3A5 (CYP3A5 [1]; listed as dronedarone): 3.989 µL/min/pmol
- KI (inactivation) (CYP3A5 [2]): 5370 nM
- half-life at 1 μM (CYP2J2 [3]): 4.95 min
- Ki (CYP2J2 [4]): 930 nM

SMILES: Cl.[2H]c1c(NS(C)(=O)=O)c([2H])c2c(C(=O)c3ccc(OCCCN(CCCC)CCCC)cc3)c(CCCC)oc2c1[2H] [Poyendarone, Methanesulfonamide, N-(2-butyl-3-(4-(3-(dibutylamino)propoxy)benzoyl)-1-benzo(4,6,7-d3)-furan-5-yl)hydrochloride]
- beat-to-beat variability (BBV), inter-beat intervals in Poincaré plot (hiPSC-CM): least variability among the beats; also recorded: lack of beat-to-beat variability (BBV)
- elimination rate constant k by CYP3A5 (CYP3A5 [1]): 0.02757 min⁻¹
- CLint (CYP3A5) (CYP3A5 [1]): 14.2384* μL/min/mg microsomal protein
- half-life at 1 μM (CYP3A5 [1]): 25.1 min
- Intrinsic clearance, CLint CYP3A5 (CYP3A5 [1]): 2.76 µL/min/pmol
- Intrinsic clearance, CLint CYP3A5 (CYP3A5 [1]; listed as poyendarone): 2.757 µL/min/pmol
- KI (inactivation) (CYP3A5 [2]): 2910 nM
- half-life at 1 μM (CYP2J2 [3]): 5.32 min
- Ki (CYP2J2 [4]): 930 nM
